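Values below derive from 48-hour exposures of cells grown in 96-well plates, with endpoints linearly interpolated between the two concentrations bracketing the appropriate inhibition level. Here, GI50 denotes the concentration required for 50% inhibition of growth. Definition used: TGI = concentration required for complete inhibition of growth.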
Assays:
Assay in all cases: DTP human tumour cell line panel, 48 h
SK-MEL-5 melanoma = test system: SK-MEL-5 melanoma
PC-3 prostate = test system: PC-3 prostate
NCI-H522 lung = test system: NCI-H522 lung
M14 melanoma = test system: M14 melanoma
SK-OV-3 ovarian = test system: SK-OV-3 ovarian
OVCAR-8 ovarian = test system: OVCAR-8 ovarian
SN12C renal = test system: SN12C renal
KM12 colon = test system: KM12 colon
HS 578T breast = test system: HS 578T breast
NCI-H23 lung = test system: NCI-H23 lung

Row | Compound | GI50 (SK-MEL-5 melanoma) [µM] | TGI (SK-MEL-5 melanoma) [µM] | GI50 (PC-3 prostate) [µM] | TGI (PC-3 prostate) [µM] | GI50 (NCI-H522 lung) [µM] | TGI (NCI-H522 lung) [µM] | GI50 (M14 melanoma) [µM] | TGI (M14 melanoma) [µM] | GI50 (SK-OV-3 ovarian) [µM] | TGI (SK-OV-3 ovarian) [µM] | GI50 (OVCAR-8 ovarian) [µM] | TGI (OVCAR-8 ovarian) [µM] | GI50 (SN12C renal) [µM] | TGI (SN12C renal) [µM] | GI50 (KM12 colon) [µM] | TGI (KM12 colon) [µM] | GI50 (HS 578T breast) [µM] | TGI (HS 578T breast) [µM] | GI50 (NCI-H23 lung) [µM] | TGI (NCI-H23 lung) [µM]
1 | COc1nc(N)nc2c1ncn2C1OC(CO)C(O)C1O (stereo not given) | 164 | > 5000 | > 5000 | > 5000 | > 5000 | > 5000 | > 5000 | > 5000 | 2430 | > 5000 | > 5000 | > 5000 | 3280 | > 5000 | > 5000 | > 5000 | > 5000 | > 5000 | 909 | > 5000
2 | Cc1ccc(C)c(C2NC(=O)c3ccccc3N2)c1 (stereo not given) |  | 21.3 |  | 28.3 |  | 3.52 |  | 26.1 |  | > 75.1 |  | > 79.6 |  | > 100 |  | > 70.8 |  | 7.73 |  | > 62.1
3 | CCn1c(-c2cc3ccccc3cc2O)nn(C(=O)c2c(Cl)cccc2Cl)c1=S | 10 | 19.7 | > 50 | > 50 | 21.6 | > 50 | 7.11 | 21.9 | 15.4 | 40 | > 50 | > 50 | 23.7 | > 50 | > 50 | > 50 | 8.76 | 21.5 | 20.3 | > 50
4 | COc1ccccc1CNCCCN1C(=O)c2ccc3c4c(ccc(c24)C1=O)C(=O)N(CCCCNCCCN)C3=O | 0.467 | 0.95 | 2.29 | 9.82 | 1.46 | 3.25 | 1.89 | 3.5 | 3.74 | 15.9 | 0.71 | 3.67 | 0.704 | 2.09 | 2.53 | 9.7 | 2.27 | 8.2 | 0.594 | 1.63
5 | CC[N+]1(C)CCC(O)(c2ccc(OC)cc2)C(C(=O)c2ccc(OC)cc2)C1 (stereo not given) |  | 29.5 |  | 31.8 |  | 3.89 |  | 21.3 |  | 33.7 |  | 59.4 |  | 32.9 |  | 31.2 |  | 7.43 |  | 36.8
6 | COc1cc(CNc2ccccc2C(=O)N2CCN(C(=O)c3cc(-c4cc(OC)c(OC)c(OC)c4)n4nc(-c5ccccc5)cc4n3)CC2)cc(OC)c1OC | 1.58 | 3.91 | 2.35 | > 100 | 2.22 | > 100 | 4.05 | > 100 | 4.42 | 38.4 | 4.35 | > 100 | 17 | > 100 | 2.78 | > 100 | 3.8 | > 100 | 4.96 | > 100
7 | COc1ccc(OC)c2c1[nH]c(=O)c1c3ncccc3cn21 | 3.79 | > 100 | 4.73 | > 100 | 4.71 | > 100 | 4.49 | > 100 | 4.63 | > 100 | 2.53 | > 100 | 4.48 | > 100 | 4.23 | > 100 | 5.37 | > 100 | 3.58 | > 100
8 | NC(=O)c1cccc(Nc2nccc(Nc3cccc4[nH]ncc34)n2)c1 | 6.96 | > 25 | 8.73 | > 25 | 8.85 | > 25 | 9.59 | > 25 | 8.45 | > 25 | 8.11 | > 25 | 8.74 | > 25 | 9.78 | > 25 | 0.557 | 3.21 | 17.1 | > 25
9 | CC(=O)On1c(-c2ccccc2-c2nc3ccccc3n2OC(C)=O)nc2ccccc21 |  | 13.7 |  | 58.6 |  | 51.5 |  | > 100 |  | > 100 |  | > 100 |  | > 100 |  | > 100 |  | > 100 |  | 76.6
10 | O=C(OCc1ncc(-c2ccc(C(F)(F)F)cc2)c(NC2CCCCCC2)n1)c1c(F)c(F)c(F)c(F)c1F | 16 | 30.3 | 12 | 26.7 | 3.9 | 14.6 | 17.3 | 39.6 | 21.6 | 39.1 | 12.2 | 34 | 12.1 | 28 | 18.1 | 42.5 | 16.2 | 51.9 | 10.6 | 28

Source: PubChem BioAssay (NCI)
